Each structure is given as a SMILES string. Structures can show the parent of a compound that is named as a salt.

The subject of the data set is B16 F0 murine melanoma. Briefly: Biodistribution study by planar scintigraphic imaging (gamma camera), tumour uptake quantification. It is filed as in vivo, C57BL6 male mice. As to conditions: i.v. The method, then: Tumour Implantation. For transplantation, cells grown in monolayer culture to confluence were trypsinized and washed with phosphate buffer saline (PBS). They were resuspended in PBS and each mouse received 0.1 mL subcutaneously (3×10^5 cells) on the left flank in order to allow a tumour growth on the body side. Ten days later, the tumours became palpable with a percentage of tumour take of 98-100%.
The in vivo biodistribution and kinetic profile of each radiolabelled (iodine-125) compound have been studied in C57BL6 male mice bearing the B16 F0 murine melanoma by repeated planar scintigraphic imaging which allows the tumour uptake follow-up in the same animal.
Gamma Camera. In vivo radionuclide imaging was performed using a γ IMAGER (Biospace Mesures, Paris, France) especially dedicated for small animal, a scintigraphic camera with a continuous 4 mm thick×120 mm diameter CsI(Na) crystal, a position-sensitive Hamamatsu R3292 photomultiplier and a 10 cm field of view.
Imaging Protocol. On day 14 after tumour implantation (tumour weight 0.25±0.10 g) each [^125I]-radioiodinated compound was administered intravenously via a tail vein (0.1 μmol, range 3.7 to 7 MBq/animal) in three mice for each compound. At different times after administration (1, 3, 6, 24, 72 hours, 5, 7, 10 and 15 days), mice were anesthetized with 0.2 mL, for a 20 g mouse, of a ketamine-xylazine mixture in saline (1-0.25 mL for 5 mL) by i. p. administration, and repeated planar scintigraphic whole body imaging (mouse laying in anterior position on the camera field) were performed by an acquisition time of 10 min. For this study, the camera was equipped with a 1.8/0.2/20 collimator (hole diameter/septum thickness/height in mm).
Tumoural Radioactivity Quantification Approach. The injected activity to each mouse was determined from scintigraphic imaging of the syringe before and after the injection using the γ-IMAGER.
Regions of interest (ROIs) were delineated over the whole body image: whole body uptake area (or the various fixing areas, eyes, thyroid and abdomen) and one for the tumour uptake area. In the various ROIs, the activity (cpm) was quantified using the Biospace measures γ VISION+software. These values were normalized to the injected dose. For the tumour, the activity was also normalized to the tumour weight. Firstly, the volume was calculated from the two dimensions caliper measurement (Bissery, M. C.; Guenard, D.; Gueritte-Voegelin, F.; Lavelle, F. Experimental antitumour activity of taxotere (RP 56976, NSC 628503) a taxol analogue. Cancer res. 1991, 51, 4845-4852). Secondly, the weight was determined from the volume value corrected by a factor determined from a large panel of experiments (Weight g=volume mm^3×0.6). The data were expressed as % ID/g of B 16F0 melanoma tumour.

`CCN(CCNC(=O)c1cnc2cc([125I])ccc2n1)CCc1ccnc(F)c1.Cl.Cl` [[^125I]47]: the “Radioactive concentration in tumour (tumoural uptake)” value (shortened to “Radioactive concentration in tumour”) (1 H post injection) was 12.1 ± 4.1 % ID/g; the “Radioactive concentration in tumour” value (3 H post injection) is listed as 13.3 ± 6.0 % ID/g; the “Radioactive concentration in tumour” value (6 H post injection) came to 14.5 ± 6.6 % ID/g; the “Radioactive concentration in tumour” value (24 H post injection) turned out to be 11.2 ± 2.5 % ID/g; the “Radioactive concentration in tumour” value (72 H post injection) is on record as 7.7 ± 0.9 % ID/g; the “Radioactive concentration in tumour” value (120 H post injection) stood at 5.2 ± 1.7 % ID/g. For the same molecule, the “Radioactive concentration in tumour” value reads like this: (168 H post injection) 3.0 ± 1.0 % ID/g; (240 H post injection) 1.6 ± 0.5 % ID/g; (360 H (15 days) post injection) 1.1 ± 0.3 % ID/g.

`CCN(CCF)CCNC(=O)c1cnc2cc([125I])ccc2n1` [[^125I]26, [^125I]N-[2-[[N-ethyl-N-(2-fluoroethyl)]amino]ethyl]-6-iodoquinoxaline-2-carboxamide dihydrochloride salt]: the “Radioactive concentration in tumour” value reads like this: (1 H post injection) 21.4 ± 4.9 % ID/g; (6 H post injection) 25.0 ± 8.0 % ID/g; (24 H post injection) 24.8 ± 6.5 % ID/g; (120 H post injection) 8.4 % ID/g; (240 H post injection) 1.6 % ID/g; (360 H (15 days) post injection) 0.6 % ID/g.

As to `CCN(CCNC(=O)c1cnc2cc([125I])ccc2n1)CCNc1cccc(F)n1` [[^125I]17, [^125I]N-[2-[N-ethyl-N-[2-[(6-fluoropyridin-2-yl)amino]ethyl]amino]ethyl]-6-iodoquinoxaline-2-carboxamide dihydrochloride salt], the “Radioactive concentration in tumour” value runs as follows: (1 H post injection) 13.1 ± 6.8 % ID/g; (3 H post injection) 13.7 ± 6.1 % ID/g; (6 H post injection) 12.5 ± 3.9 % ID/g; (24 H post injection) 8.6 ± 0.9 % ID/g; (72 H post injection) 5.7 ± 1.5 % ID/g; (120 H post injection) 2.6 ± 0.4 % ID/g. Also, the “Radioactive concentration in tumour” value by setting is: (168 H post injection) 1.5 ± 0.2 % ID/g; (240 H post injection) 0.8 ± 0.1 % ID/g; (360 H (15 days) post injection) 0.4 ± 0.2 % ID/g.

Take `CCN(CCCc1ccnc(F)c1)CCNC(=O)c1cnc2cc([125I])ccc2n1.Cl.Cl` [[^125I]53]: the “Radioactive concentration in tumour” value by setting is: (1 H post injection) 9.1 ± 1.8 % ID/g; (3 H post injection) 9.3 ± 0.6 % ID/g; (6 H post injection) 14.1 ± 3.9 % ID/g; (24 H post injection) 16.3 ± 8.9 % ID/g; (72 H post injection) 9.5 ± 5.9 % ID/g; (120 H post injection) 5.1 ± 3.3 % ID/g. For the same molecule, the “Radioactive concentration in tumour” value by setting is: (168 H post injection) 2.5 ± 2.1 % ID/g; (240 H post injection) 1.4 ± 1.0 % ID/g; (360 H (15 days) post injection) 0.7 ± 0.5 % ID/g.

Take `CCN(CCNC(=O)c1cnc2cc([125I])ccc2n1)Cc1ccnc(F)c1.Cl.Cl` [[^125I]34]: the “Radioactive concentration in tumour” value is on record as 10.3 ± 6.6 % ID/g (1 H post injection); 12.0 ± 4.8 % ID/g (3 H post injection); 15.4 ± 6.7 % ID/g (6 H post injection); 16.0 ± 7.4 % ID/g (24 H post injection); 10.0 ± 2.6 % ID/g (72 H post injection); 7.1 ± 1.8 % ID/g (120 H post injection). The “Radioactive concentration in tumour” value runs as follows: (240 H post injection) 1.9 ± 0.9 % ID/g; (360 H (15 days) post injection) 0.8 ± 0.5 % ID/g.

Consider `CCN(CCNC(=O)c1cccc2nc3cc([125I])ccc3nc12)CCOc1cccnc1F.Cl.Cl` [[^125I]85], for which the “Radioactive concentration in tumour” value (1 H post injection) came to 11.4 ± 1.7 % ID/g; the “Radioactive concentration in tumour” value (3 H post injection) worked out at 12.3 ± 1.7 % ID/g; the “Radioactive concentration in tumour” value (6 H post injection) turned out to be 13.8 ± 2.5 % ID/g; the “Radioactive concentration in tumour” value (24 H post injection) was determined as 13.8 ± 2.3 % ID/g; the “Radioactive concentration in tumour” value (72 H post injection) was found to be 5.8 ± 0.2 % ID/g; the “Radioactive concentration in tumour” value (120 H post injection) was 3.7 ± 0.6 % ID/g. In addition, the “Radioactive concentration in tumour” value by setting is: (168 H post injection) 2.0 ± 0.9 % ID/g; (240 H post injection) 1.2 ± 0.5 % ID/g; (360 H (15 days) post injection) 0.7 ± 0.4 % ID/g.

On to `CCN(CCNC(=O)c1ccc2cncc([125I])c2n1)CCOc1cccnc1F.Cl.Cl` [[^125I]74], for which the “Radioactive concentration in tumour” value reads like this: (1 H post injection) 5.6 ± 1.7 % ID/g; (3 H post injection) 5.5 ± 2.4 % ID/g; (6 H post injection) 5.3 ± 2.4 % ID/g; (24 H post injection) 5.2 ± 2.0 % ID/g; (72 H post injection) 3.3 ± 2.0 % ID/g; (120 H post injection) 1.6 ± 0.7 % ID/g. Further, the “Radioactive concentration in tumour” value (168 H post injection) amounted to 1.1 ± 0.5 % ID/g, the “Radioactive concentration in tumour” value (240 H post injection) stood at 0.5 ± 0.3 % ID/g and the “Radioactive concentration in tumour” value (360 H (15 days) post injection) is recorded as 0.4 ± 0.3 % ID/g.

As for `CCN(C/C=C/CF)CCNC(=O)c1cnc2cc([125I])ccc2n1.Cl.Cl` [[^125I]57], the “Radioactive concentration in tumour” value runs as follows: (1 H post injection) 10.8 ± 2.3 % ID/g; (3 H post injection) 12.3 ± 2.8 % ID/g; (6 H post injection) 13.9 ± 1.3 % ID/g; (24 H post injection) 15.0 ± 0.5 % ID/g; (72 H post injection) 10.0 ± 0.9 % ID/g; (120 H post injection) 5.6 ± 1.0 % ID/g. Moreover, the “Radioactive concentration in tumour” value (168 H post injection) worked out at 3.3 ± 0.6 % ID/g, the “Radioactive concentration in tumour” value (240 H post injection) is 1.9 ± 0.3 % ID/g and the “Radioactive concentration in tumour” value (360 H (15 days) post injection) was found to be 1.3 ± 0.6 % ID/g.

For `CCN(CC)CCNC(=O)c1cc(F)c2cc([125I])ccc2n1` [[^125I]106, [^125I]N-[2-(diethylamino)ethyl]-4-fluoro-6-iodoquinoline-2-carboxamide], the “Radioactive concentration in tumour” value is, setting by setting: (1 H post injection) 6.0 ± 1.3 % ID/g; (3 H post injection) 8.0 ± 0.9 % ID/g; (6 H post injection) 9.5 ± 1.8 % ID/g; (24 H post injection) 8.4 ± 0.8 % ID/g; (72 H post injection) 4.9 ± 1.2 % ID/g; (120 H post injection) 3.0 ± 0.1 % ID/g. Also, the “Radioactive concentration in tumour” value reads like this: (168 H post injection) 2.3 ± 0.6 % ID/g; (240 H post injection) 1.5 ± 0.1 % ID/g; (360 H (15 days) post injection) 0.7 ± 0.1 % ID/g.

`CCN(CCNC(=O)c1cnc2cc([125I])ccc2n1)CCOc1cccnc1F` [[^125I]11, [^125I]N-[2-[N-ethyl-N-[2-(2-fluoropyridin-3-yloxy)ethyl]amino]ethyl]-6-iodoquinoxaline-2-carboxamide dihydrochloride salt]: the “Radioactive concentration in tumour” value is, setting by setting: (1 H post injection) 12.7 ± 2.3 % ID/g; (6 H post injection) 18.8 ± 1.6 % ID/g; (24 H post injection) 18.2 ± 0.6 % ID/g; (72 H post injection) 10.3 ± 1.7 % ID/g; (120 H post injection) 5.2 ± 1.2 % ID/g; (168 H post injection) 3.2 ± 0.4 % ID/g. Besides, the “Radioactive concentration in tumour” value was 1.7 ± 0.4 % ID/g (240 H post injection) and 0.6 ± 0.3 % ID/g (360 H (15 days) post injection).

Regarding `CCN(CCNC(=O)c1ccnc(F)c1)CCNC(=O)c1cnc2cc([125I])ccc2n1.Cl.Cl` [[^125I]40], the “Radioactive concentration in tumour” value reads like this: (1 H post injection) 9.6 ± 0.7 % ID/g; (3 H post injection) 8.8 ± 1.6 % ID/g; (6 H post injection) 12.1 ± 3.2 % ID/g; (24 H post injection) 12.1 ± 4.6 % ID/g; (72 H post injection) 9.6 ± 7.1 % ID/g; (120 H post injection) 5.1 ± 3.3 % ID/g.

For the origin of these results see US9125937B2, “Labelled analogues of halobenzamides as multimodal radiopharmaceuticals and their precursors” (INSTITUT NATIONAL DE LA SANTE ET DE LA RECHERCHE MEDICALE …, priority 2008, dated 2015).
